Assay results from ChEMBL document CHEMBL3885861, “Open TG-GATES”.

Species on record: Rattus norvegicus
Experiment: Open TG-GATES - Regimen: Single
Format: toxicity, organism-based, Sprague-Dawley
Set-up: regimen Single, gender Male, age 6 weeks
Conditions: in vivo, iv, 0 mg/kg, route intravenous injection, dose level Control; for APTT / Bas / Eos / Fbg / Hb / Ht / Lym / MCH / MCHC / MCV / Mono / Neu / PT / Plat / RBC / Ret / WBC: tissue Blood; for KIDNEY_L / KIDNEY_R / KIDNEY_TOTAL: tissue Kidney; for LIVER: tissue Liver; for A/G / ALP / ALT / AST / BUN / CRE / Ca / Cl / DBIL / GLC / IP / K / LDH / Na / PL / RALB / TBIL / TC / TG / TP / gamma-GTP: tissue Plasma

CN(C)c1ncnc2c1ncn2[C@@H]1O[C@H](CO)[C@@H](N)[C@H]1O [PUROMYCIN AMINONUCLEOSIDE]
TERMINAL_BW (3 h): 211.9 g
APTT (3 h): 22.7 s
Bas (3 h): 0%
Eos (3 h): 1%
Fbg (3 h): 253 mg/dL
Hb (3 h): 12.7 g/dL
Ht (3 h): 37.2%
Lym (3 h): 82.6%
MCH (3 h): 21.3 pg
MCHC (3 h): 34.1%
MCV (3 h): 62.5 fL
Mono (3 h): 2.2%
Neu (3 h): 13.6%
PT (3 h): 16.1 s
Plat (3 h): 120.5 x10_4/uL
RBC (3 h): 594.8 x10_4/ul
Ret (3 h): 7.1%
WBC (3 h): 122.5 x10_2/uL
KIDNEY_L (3 h): 0.9 g
KIDNEY_R (3 h): 0.9 g
KIDNEY_TOTAL (3 h): 1.9 g
LIVER (3 h): 9.5 g
A/G (3 h): 1.2
ALP (3 h): 1324.8 IU/L
ALT (3 h): 32.6 IU/L
AST (3 h): 66.4 IU/L
BUN (3 h): 13.2 mg/dL
CRE (3 h): 0.2 mg/dL
Ca (3 h): 11 mg/dL
Cl (3 h): 105.2 meq/L
DBIL (3 h): 0.002 mg/dL
GLC (3 h): 191.4 mg/dL
IP (3 h): 7.7 mg/dL
K (3 h): 4.6 meq/L
LDH (3 h): 171.2 IU/L
Na (3 h): 140.4 meq/L
PL (3 h): 130.2 mg/dL
RALB (3 h): 2.9 g/dL
TBIL (3 h): 0.022 mg/dL
TC (3 h): 68 mg/dL
TG (3 h): 69 mg/dL
TP (3 h): 5.3 g/dL
gamma-GTP (3 h): 1 IU/L
TERMINAL_BW (6 h): 212.9 g
APTT (6 h): 22 s
Bas (6 h): 0%
Eos (6 h): 1%
Fbg (6 h): 301.2 mg/dL
Hb (6 h): 12.7 g/dL
Ht (6 h): 37.4%
Lym (6 h): 81.6%
MCH (6 h): 21.8 pg
MCHC (6 h): 34.1%
MCV (6 h): 64 fL
Mono (6 h): 2.6%
Neu (6 h): 14%
PT (6 h): 16 s
Plat (6 h): 122.7 x10_4/uL
RBC (6 h): 584.8 x10_4/ul
Ret (6 h): 8.2%
WBC (6 h): 100.6 x10_2/uL
KIDNEY_L (6 h): 0.9 g
KIDNEY_R (6 h): 0.9 g
KIDNEY_TOTAL (6 h): 1.9 g
LIVER (6 h): 9.4 g
A/G (6 h): 1.3
ALP (6 h): 1216.4 IU/L
ALT (6 h): 37.8 IU/L
AST (6 h): 70 IU/L
BUN (6 h): 11.4 mg/dL
CRE (6 h): 0.2 mg/dL
Ca (6 h): 11.2 mg/dL
Cl (6 h): 106.4 meq/L
DBIL (6 h): 0 mg/dL
GLC (6 h): 188.8 mg/dL
IP (6 h): 8.3 mg/dL
K (6 h): 4.3 meq/L
LDH (6 h): 177.8 IU/L
Na (6 h): 140.4 meq/L
PL (6 h): 140.2 mg/dL
RALB (6 h): 3 g/dL
TBIL (6 h): 0.022 mg/dL
TC (6 h): 80 mg/dL
TG (6 h): 70.6 mg/dL
TP (6 h): 5.3 g/dL
gamma-GTP (6 h): 1.4 IU/L
